According to patent US8946478B2, “Benzamide derivative with anticancer activity and preparation method and use thereof” (Zhejiang Hisun Pharmaceutical Co., Ltd., priority 2010, dated 2015):

How the values were obtained:
Experiment in all cases: In vitro SRB tumor cell growth inhibition (GI50)
Type in all cases: cell-based
human leukemia HL-60 = conditions: Homo sapiens, HL-60, 48 h, HL-60 cells
[1] = tested on: human colon cancer cell strain HCT-116; conditions: Homo sapiens, HCT-116, 48 h, HCT-116 cells
[2] = tested on: human lung cancer cell strain 95D; conditions: Homo sapiens, 95-D, 48 h, 95D cells
[3] = tested on: human pancreatic cancer PANC-1; conditions: Homo sapiens, PANC-1, 48 h, PANC-1 cells
Procedure, shortened: (§1)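 A549 and PANC-1 seeded at 10000 cells/well, OVCAR-5 and NCI460 at 5000 cells/well in DMEM/10% FBS, pre-incubated 24 h at 37 °C. Compounds added for 48 h, triplicate; cells TCA-fixed, SRB-stained, absorbance read at 515 nm with 690 nm blank. GI50 from dose-response curve, time-zero wells included.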

[4] = tested on: human breast cancer cell strain MDA-MB435; conditions: Homo sapiens, MDA-MB-435, 48 h, MDA-MB435 cells
[5] = tested on: human colon cancer cell strain Colo205; conditions: Colo 205 cells, 48 h
[6] = tested on: human prostate cancer BXPC-3; conditions: BXPC-3 cells, 48 h
[7] = tested on: human ovarian cancer cell strain OVCAR-5; conditions: OVCAR-5 cells, 48 h
Procedure, shortened: as §1

[8] = tested on: human lung cancer cell strain A549; conditions: A549 cells, 48 h
Procedure, shortened: as §1

[9] = tested on: human prostate cancer DU145; conditions: Homo sapiens, DU-145, 48 h, DU145 cells
[10] = tested on: human ovarian cancer cell strain HO8910; conditions: HO-8910, HO8910 cells, 48 h
[11] = tested on: human uterine cancer Hela; conditions: Homo sapiens, HeLa, 48 h, Hela cells
[12] = tested on: human breast cancer cell strain MCF-7; conditions: Homo sapiens, MCF7, 48 h, MCF-7 cells
[13] = tested on: human lung cancer cell strain NCI-460; conditions: Homo sapiens, NCI-460, 48 h, NCI-460 cells
Procedure, shortened: as §1

[14] = tested on: human ovarian cancer cell strain OVCAR-8; conditions: Homo sapiens, OVCAR-8, 48 h, OVCAR-8 cells
human leukemia K562 = conditions: Homo sapiens, K562, 48 h, K562 cells
human hepatoma HepG 2 = conditions: HepG2, HepG 2 cells, 48 h
[15] = tested on: human ovarian cancer cell strain SKOV-3; conditions: SK-OV-3, SKOV-3 cells, 48 h

SMILES | GI50 (human leukemia HL-60) [µM] | GI50 [1] [µM] | GI50 [2] [µM] | GI50 [3] [µM] | GI50 [4] [µM] | GI50 [5] [µM] | GI50 [6] [µM] | GI50 [7] [µM] | GI50 [8] [µM] | GI50 [9] [µM] | GI50 [10] [µM] | GI50 [11] [µM] | GI50 [12] [µM] | GI50 [13] [µM] | GI50 [14] [µM] | GI50 (human leukemia K562) [µM] | GI50 (human hepatoma HepG 2) [µM] | GI50 [15] [µM]
C#Cc1ccc(C(N)=O)cc1[N+](=O)[O-] [Compound I-1, 4-ethynyl-3-nitrobenzamide] | 2.11 | 1.9 | 1.88 | 7.41 | 2.05 | 4.84 | 4.68 | 4.29 | 4.56 | 4.78 | 1.47 | 5.28 | 2.47 | 10.9 | 11.7 | 3.02 | 8.73 | 3.17
NC(=O)c1ccc(I)c([N+](=O)[O-])c1 [BSI-201, 4-iodo-3-nitrobenzamide, reference compound] | 74.1 | 64.7 | 53.8 | 25.5 | 64.4 | 76 | 105 | 61.1 | 105 | 86.6 | 72.6 | 64.7 | 40.1 | > 100 | 103 | 44.6 | > 100 | 38.5
